Values of other authors in patent publication US7235556B2, “Methods of treating dry eye disorders” (Alcon, Inc., priority 2003, dated 2007).

Tested on: allergic dermal inflammation
Conditions: guinea pig model of eczema; reported in the background section

SMILES: CC(C)(C(=O)O)c1cn2nc(NCCCN3CCC(OC(c4ccccc4)c4ccccc4)CC3)ccc2n1.O.O [TAK-427, 2-[6-[[3-[4-(diphenylmethoxy)piperidino]propyl]amino]imidazo[1,2-b]pyridazin-2-yl]2-methylpropionic acid dihydrate]
- inhibition of allergic dermal inflammation: inhibit allergic dermal inflammation
